Data published in patent publication US20010047524A1, “Methods and tissue culture media for inducing somatic embryogenesis, agrobacterium-mediated transformation and efficient regeneration of cacao plants” (priority 1997, published 2001).

Tested on: staminode and petal base explants of cacao genotype Sca-6
Test: Somatic embryogenesis from cacao floral explants cultured on PCG medium containing various concentrations of TDZ
Assay type: cell-based, Theobroma cacao L.
Experimental: Primary callus growth (PCG) medium was prepared by combining the following solutions and compounds (per liter): 100 ml each DKW macro solutions A and B, 10 ml DKW micro solution, 1 ml DKW vitamin solution, 20 g glucose, 250 mg glutamine, 100 mg myo-inositol, 100 ml 2,4-D solution, 10 ml TDZ solution, and 2.0 g phytagel, and the pH was adjusted to 5.8.
The staminodes and petal base explants from the four flower buds were then transferred into a Petri dish containing 30 ml of PCG medium. Any fused staminodes and petal base explants were separated and explants were distributed evenly across the medium. The Petri dishes were sealed with a double layer of parafilm and cultures were maintained in the dark at 25±2° C. for 14 days (FIG. 2a). Growth reduction, senescence, and tissue browning may occur with subculture intervals longer than 14 days.
The staminode and petal base explants were then transferred from a PCG medium to a Petri dish containing 30 ml of SCG medium. The dishes were sealed and the cultures were maintained in the dark for 14 days at 25±2° C. Globular calli were produced on the entire tissue explant at the end of this culture period (FIG. 2b).
Staminode and petal base explants and calli derived in the callus induction step were transferred to Petri dishes containing 30 ml of ED medium. Explants were cultured in the dark for 14 days at 25±2° C. Explants were then subcultured onto the fresh ED medium and maintained in the dark for another 14 days. By that time, numerous somatic embryos at globular and heart-shaped stages of development were visible on the embryogenic calli (FIG. 2c and d).
The effect of TDZ concentration on somatic embryogenesis from staminode explants of five cacao genotypes was determined and is shown in FIG. 3. Staminodes were cultured on PCG medium containing various concentrations of TDZ. […] Data were collected two months after culture initiation. Each treatment contained 20 staminodes per plate with three replicate plates. The values shown in FIG. 3 represent the average percentage rates of embryo-producing staminodes from three repeated experiments. Up to 100% of cultured staminode and over 60% of petal base explants from cacao genotype Sca-6 produced somatic embryos (FIG. 3).
The effect of TDZ concentration on somatic embryo production from staminode explants of five cacao genotypes was determined and is shown in FIG. 4. Staminodes were cultured on PCG medium containing various concentrations of TDZ. […] Data were collected two months after culture initiation. Each treatment contained 20 staminodes per plate with three replica plates. Values represent the average number of somatic embryos per responsive staminode from three repeated experiments. […]

[1] = two months after culture initiation, FIG. 4

Question: With `O=C(Nc1ccccc1)Nc1cnns1` [TDZ, thidiazuron] as the molecule, how does the “petal base explants that produced somatic embryos” value (FIG. 3) read?
Answer: over 60%

Question: And the “cultured staminode explants that produced somatic embryos” value (PCG medium with various TDZ concentrations, then SCG and ED medium, two months after culture initiation, FIG. 3)?
Answer: Up to 100%

Question: And the “average number of primary somatic embryos per responsive staminode” value [1]?
Answer: about 46

Question: What about the “primary somatic embryos produced by a single staminode explant (maximum)” value [1] of the same molecule?
Answer: up to 140
